How the values were obtained:
in vitro [1] = format: cell-based, canine; settings: dog
Description: (§1) The 3-(4,5-dimethylthiazol-2-yl)-2,5-diphenyltetrazolium bromide (MTT) method was performed to assess the cytotoxicity of target compounds in MDCK cells and HEK293T cells. Firstly, MDCK cells or HEK293T cells were seeded into the 96-well plate. Then, the media containing test compounds replaced the growth media after 48 h. Incubate MDCK cells or HEK293T cells with test compounds for 72 h at 37 °C in a humidified 5% CO2 incubator. Later, MTT solution (5 mg/mL in PBS) was added into each well and plates were incubated for 4 h at 37 °C. Then, add a solubilization solution to lyse cells. Finally, absorbance was read at 620 nm using an ELISA plate reader (Tecan Sunrise) after 3 h of further incubation at 37 °C. We set the values obtained from the wells treated with only DMSO as 100% of viable cells.

MDCK cells = experiment: in vitro; format: cell-based, canine; settings: dog, 72 h
Description: as §1

in vitro [2] = format: cell-based; settings: human
Description: as §1

HEK293T cells = experiment: in vitro; format: cell-based; settings: human, 72 h
Description: as §1

[3] = tested on: influenza virus A/WSN/33 (H1N1); experiment: microbe, parasite or virus in culture; format: cell-based; settings: MDCK, 72 h; for inhibition at 12.5 µM / inhibition at 25 µM / inhibition at 50 µM / inhibition at 100 µM: H1N1|WSN, read-out: Antiviral activity in CPE assay; for EC50: read-out: Cytopathic Effect Assay (A/WSN/33, H1N1) EC50
[4] = tested on: influenza virus A/WSN/33 (H1N1); experiment: Plaque inhibition assay in MDCK cells; format: cell-based; settings: for inhibition at 100 µM: MDCK, concentration 100 µM, read-out: Plaque Inhibition Assay (A/WSN/33, H1N1) Inhibition Rate
PA-PB1 endonuclease [5] = experiment: Experimental PA-PB1 inhibitory activity of literature inhibitors (training and test set); format: biochemical, influenza virus; settings: class of the experimental IC50
PA-PB1 endonuclease [6] = tested on: PA-PB1 endonuclease; design: method as in supplement 1-7; settings: training and test set compounds collected from literature; ref supplement 1-7; read-out: IC50 value Experimental (PA-PB1 endonuclease inhibitors); cited from earlier work
[7] = target: ribonucleoprotein (RNP) of influenza virus (Influenza A virus, UniProt P15659); experiment: cell-based; settings: HEK-293T; concentration 100 µM; read-out: RNP Reconstitution Assay Inhibition Rate

Row | Compound | Activity scale Experimental (PA-PB1 endonuclease [5]) | IC50 (PA-PB1 endonuclease [6]) [µM] | further results
1 | COc1ccccc1OCCNC(=O)c1ccc(Nc2ccnc3ccc(Br)cc23)cc1 [Compound G24, N-[2-(2-Methoxyphenoxy)ethyl]-4-[(6-bromoquinolin-4-yl)amino]benzamide] | – | – | CC50 at 72 h (in vitro [1]): > 100 µM; MDCK cells survival rate (MDCK cells; 12.5 µmol·L−1): 97.97±11.82%; MDCK cells survival rate (MDCK cells; 25 µmol·L−1): 71.98±13.89%; MDCK cells survival rate (MDCK cells; 50 µmol·L−1): 87.44±3.70%; MDCK cells survival rate (MDCK cells; 100 µmol·L−1): 105.38±8.08%; CC50 at 72 h (in vitro [2]): > 100 µM; HEK293T cells survival rate (HEK293T cells; 3.125 µmol·L−1): 113.31±4.70%; HEK293T cells survival rate (HEK293T cells; 6.25 µmol·L−1): 96.70±5.40%; HEK293T cells survival rate (HEK293T cells; 12.5 µmol·L−1): 91.88±3.61%; HEK293T cells survival rate (HEK293T cells; 25 µmol·L−1): 91.06±10.23%; HEK293T cells survival rate (HEK293T cells; 50 µmol·L−1): 69.53±3.05%; HEK293T cells survival rate (HEK293T cells; 100 µmol·L−1): 72.95±4.52%; inhibition at 12.5 µM [3]: 21 ± 2.86%; inhibition at 25 µM [3]: 19.2 ± 0.69%; inhibition at 50 µM [3]: 19.2 ± 0.42%; inhibition at 100 µM [3]: 18.4 ± 1.27%; EC50 [3]: > 100 µM; inhibition at 100 µM [4]: < 10%; melting point: 240.5 to 241.3 °C
2 | COc1ccccc1OCCNC(=O)c1ccc(Nc2ccnc3ccc(Cl)cc23)cc1 [Compound G25, N-[2-(2-Methoxyphenoxy)ethyl]-4-[(6-chloroquinolin-4-yl)amino]benzamide] | – | – | CC50 at 72 h (in vitro [1]): > 100 µM; MDCK cells survival rate (MDCK cells; 12.5 µmol·L−1): 92.58±5.23%; MDCK cells survival rate (MDCK cells; 25 µmol·L−1): 85.96±5.73%; MDCK cells survival rate (MDCK cells; 50 µmol·L−1): 86.83±3.19%; MDCK cells survival rate (MDCK cells; 100 µmol·L−1): 79.32±11.90%; CC50 at 72 h (in vitro [2]): > 100 µM; HEK293T cells survival rate (HEK293T cells; 3.125 µmol·L−1): 104.71±1.87%; HEK293T cells survival rate (HEK293T cells; 6.25 µmol·L−1): 103.50±6.33%; HEK293T cells survival rate (HEK293T cells; 12.5 µmol·L−1): 99.13±1.95%; HEK293T cells survival rate (HEK293T cells; 25 µmol·L−1): 65.73±7.64%; HEK293T cells survival rate (HEK293T cells; 50 µmol·L−1): 101.61±11.65%; HEK293T cells survival rate (HEK293T cells; 100 µmol·L−1): 110.35±11.54%; inhibition at 12.5 µM [3]: 26.1 ± 0.67%; inhibition at 25 µM [3]: 25.7 ± 2.29%; inhibition at 50 µM [3]: 22.5 ± 1.29%; inhibition at 100 µM [3]: 22.3 ± 0.4%; EC50 [3]: > 100 µM; inhibition at 100 µM [4]: 0%; melting point: 247.7 to 248.4 °C
3 | Cc1cc(-c2ccccc2)n2nc(C(=O)Nc3ccccc3C(N)=O)nc2n1 [Compound H05] | +++ (+++, IC50 10 to 100 μM (active)) | 11 | –
4 | Cc1cc(-c2ccccc2)n2nc(C(=O)Nc3sc4c(c3C(=O)Nc3ccccn3)CCCCC4)nc2n1 [Compound H06] | +++ (+++, IC50 10 to 100 μM (active)) | 23 | –
5 | Cc1cc(-c2ccccc2)n2nc(C(=O)Nc3sc4c(c3C(=O)O)CCCCC4)nc2n1 [Compound H08] | +++ (+++, IC50 10 to 100 μM (active)) | 19 | –
6 | Cc1cc(-c2ccccc2)n2nc(C(=O)Nc3nc4ccccc4s3)nc2n1 [Compound H09] | +++ (+++, IC50 10 to 100 μM (active)) | 21 | –
7 | COc1ccccc1C(=O)Nc1sc2c(c1C(=O)Nc1ccccn1)CCCCC2 [Compound H11] | +++ (+++, IC50 10 to 100 μM (active)) | 22 | –
8 | O=C(Nc1sc2c(c1C(=O)Nc1ccc(Cl)cc1)CCCCC2)c1ccccc1O [Compound H12] | +++ (+++, IC50 10 to 100 μM (active)) | 18 | –
9 | O=C(Nc1sc2c(c1C(=O)Nc1ccccn1)CCCCC2)c1ccc(O)cc1 [Compound H13] | +++ (+++, IC50 10 to 100 μM (active)) | 26 | –
10 | Cc1cc(-c2ccccc2)nc2c(C(=O)Nc3sc4c(c3C(N)=O)CCC4)cnn12 [Compound H15] | +++ (+++, IC50 10 to 100 μM (active)) | 44.8 | –
11 | NC(=O)c1c(NC(=O)c2cnn3c(C(F)F)cc(-c4ccccc4)nc23)sc2c1CCC2 [Compound H16] | +++ (+++, IC50 10 to 100 μM (active)) | 25.4 | –
12 | CCCCOc1ccc(C(=O)Nc2nc3n(n2)C(c2ccccc2)C=C(C)N3)cc1 (centres unmarked) [Compound H18] | +++ (+++, IC50 10 to 100 μM (active)) | 37 | –
13 | Cc1cc(-c2ccccc2)nc2nc(NC(=O)c3ccccc3)nn12 [Compound H20] | +++ (+++, IC50 10 to 100 μM (active)) | 26 | –
14 | CCCOc1ccc(C(=O)Nc2nc3n(n2)C(c2ccccc2)C=C(C)N3)cc1 (centres unmarked) [Compound H21] | +++ (+++, IC50 10 to 100 μM (active)) | 40 | –
15 | CC1=CC(c2ccccc2)n2nc(NC(=O)c3ccc(OC(C)C)cc3)nc2N1 (centres unmarked) [Compound H22] | +++ (+++, IC50 10 to 100 μM (active)) | 75 | –
16 | CCOc1ccc(C(=O)Nc2nc3n(n2)C(c2ccccc2)C=C(C)N3)cc1 (centres unmarked) [Compound H23] | ++ (++, IC50 100 to 150 μM (moderately active)) | 139 | –
17 | CC1=CC(c2ccccc2)n2nc(NC(=O)c3ccccc3F)nc2N1 (centres unmarked) [Compound H25] | + (+, IC50 >150 μM (inactive)) | 185 | –
18 | CC1=CC(c2ccccc2)n2nc(NC(=O)c3cccc(F)c3)nc2N1 (centres unmarked) [Compound H26] | + (+, IC50 >150 μM (inactive)) | 156 | –
19 | CC1=CC(c2ccccc2)n2nc(NC(=O)c3ccc(F)cc3)nc2N1 (centres unmarked) [Compound H27] | ++ (++, IC50 100 to 150 μM (moderately active)) | 138 | –
20 | CC(c1ccccc1)n1nnnc1C(c1ccsc1)N1CCC(n2c(=O)[nH]c3ccccc32)CC1 (centres unmarked) [Compound H28] | ++++ (++++, IC50 ≤ 10 μM (most active)) | 7.6 | –
21 | CCOC(=O)c1ccc(NC(=O)CSc2nc(-c3ccccc3)cc(-c3ccc(OCc4ccccc4)c(OCC)c3)c2C#N)cc1 [Compound H30] | +++ (+++, IC50 10 to 100 μM (active)) | 30 | –
22 | NC(=O)c1c(NC(=O)c2cnn3c(C(F)F)cc(-c4ccccc4)nc23)sc2c1CCC2 [Compound H32] | +++ (+++, IC50 10 to 100 μM (active)) | 25.4 | –
23 | O=C(Nc1sc2c(c1C(=O)Nc1nccs1)CCCCC2)c1ccccc1O [Compound H33] | +++ (+++, IC50 10 to 100 μM (active)) | 69 | –
24 | COc1ccccc1C(=O)Nc1sc2c(c1C(=O)Nc1ccc(Cl)cc1)CCCCC2 [Compound H34] | +++ (+++, IC50 10 to 100 μM (active)) | 78 | –
25 | Cc1ccc(-c2cc(-c3ccccc3)nc(SCC(=O)Nc3cccc(Cl)c3)c2C#N)cc1 [Compound H35] | + (+, IC50 >150 μM (inactive)) | 180 | –
26 | Cc1ccc(-c2cc(-c3ccccc3)nc(SC(C)C(=O)Nc3cccc(Cl)c3)c2C#N)cc1 (centres unmarked) [Compound H36] | ++ (++, IC50 100 to 150 μM (moderately active)) | 125 | –
27 | Cc1ccc(-c2cc(-c3ccccc3)nc(SC(C)C(=O)Nc3ccc(C)c(C)c3)c2C#N)cc1 (centres unmarked) [Compound H38] | + (+, IC50 >150 μM (inactive)) | 180 | –
28 | Cc1onc(-c2ccccc2)c1C(=O)N1CCN(c2ccc([N+](=O)[O-])cc2Cl)CC1 [nucleozin, reference compound] | – | – | EC50 [3]: 0.21 ± 0.15 µM; IC50 ([4]; MDCK cells): 0.15 ± 0.11 µM; inhibition at 100 µM [4]: 99.5%; inhibition at 100 µM [7]: 92.9%

Source: PMC9181126, “Design, Synthesis, Molecular Docking Analysis and Biological Evaluations of 4-[(Quinolin-4-yl)amino]benzamide Derivatives as Novel Anti-Influenza Virus Agents” (International Journal of Molecular Sciences, 2022)
